Laboratory results reported in patent publication US9815839B2, “N-(1-(substituted-phenyl)ethyl)-9H-purin-6-amines as PI3K inhibitors” (Incyte Corporation, priority 2010, dated 2017).

Tests used:
[1] = target: T1, PI3Kδ (p110δ/p85α) (Homo sapiens, UniProt O00329); assay: PI3Kδ scintillation proximity assay; type: biochemical; conditions: 20 μM ATP, 4 nM PI3Kδ
T1 construct: purchased Millipore (Bedford, Mass.)
Method in brief: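 Radiometric SPA: product captured on WGA beads after EDTA quench and counted, IC50 fitted against log inhibitor concentration. Reactions ran 210 min at room temperature with 4 nM PI3Kδ (p110δ/p85α), 20 μM each PIP2 and ATP plus 33P-ATP, pH 6.7 MOPS buffer, 0.5% DMSO final.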

[2] = system: Pfeiffer cell line (diffuse large B cell lymphoma); assay: Pfeiffer cell proliferation assay; type: cell-based; conditions: Homo sapiens, Pfeiffer, Pfeiffer cells, 3-4 days plus 12 hours [3H]-thymidine incorporation
Method in brief: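 Pfeiffer DLBCL cells grown in RPMI/10% FBS at 2×10^3 cells/well in ultra-low-binding plates with a range of compound concentrations for 3-4 days. [3H]-thymidine (1 μCi/well) was then added for 12 h more. Incorporation was read by filtration and scintillation counting.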

T1 sequence (O00329 whole entry, species assumed): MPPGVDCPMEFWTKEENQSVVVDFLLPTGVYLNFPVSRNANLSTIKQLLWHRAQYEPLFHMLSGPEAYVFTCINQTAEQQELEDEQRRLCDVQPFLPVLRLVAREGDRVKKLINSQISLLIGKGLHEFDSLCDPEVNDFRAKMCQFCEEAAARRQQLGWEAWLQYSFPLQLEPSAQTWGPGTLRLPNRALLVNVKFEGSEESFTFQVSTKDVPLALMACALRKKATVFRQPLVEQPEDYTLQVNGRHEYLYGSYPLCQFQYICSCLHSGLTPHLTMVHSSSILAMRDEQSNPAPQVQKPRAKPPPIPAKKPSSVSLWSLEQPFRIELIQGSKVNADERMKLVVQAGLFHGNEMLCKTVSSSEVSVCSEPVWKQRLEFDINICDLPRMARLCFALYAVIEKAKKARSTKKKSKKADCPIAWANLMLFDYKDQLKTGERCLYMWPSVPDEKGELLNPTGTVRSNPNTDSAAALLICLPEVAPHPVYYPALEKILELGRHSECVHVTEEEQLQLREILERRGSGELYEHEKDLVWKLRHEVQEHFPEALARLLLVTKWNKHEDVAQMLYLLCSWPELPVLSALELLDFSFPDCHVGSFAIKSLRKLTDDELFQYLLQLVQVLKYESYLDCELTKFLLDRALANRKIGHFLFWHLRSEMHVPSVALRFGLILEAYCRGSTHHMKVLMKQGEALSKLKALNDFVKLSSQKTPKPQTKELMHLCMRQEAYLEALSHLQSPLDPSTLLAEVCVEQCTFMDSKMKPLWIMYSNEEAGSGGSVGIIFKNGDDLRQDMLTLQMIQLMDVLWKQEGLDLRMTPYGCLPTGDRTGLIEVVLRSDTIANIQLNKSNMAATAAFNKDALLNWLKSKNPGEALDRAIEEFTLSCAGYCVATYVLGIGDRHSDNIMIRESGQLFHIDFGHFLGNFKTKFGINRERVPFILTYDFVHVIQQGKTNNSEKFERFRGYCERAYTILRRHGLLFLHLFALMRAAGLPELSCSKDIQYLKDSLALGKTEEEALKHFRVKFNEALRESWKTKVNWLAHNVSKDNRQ
T1 sequence (P27986 whole entry partner, species assumed): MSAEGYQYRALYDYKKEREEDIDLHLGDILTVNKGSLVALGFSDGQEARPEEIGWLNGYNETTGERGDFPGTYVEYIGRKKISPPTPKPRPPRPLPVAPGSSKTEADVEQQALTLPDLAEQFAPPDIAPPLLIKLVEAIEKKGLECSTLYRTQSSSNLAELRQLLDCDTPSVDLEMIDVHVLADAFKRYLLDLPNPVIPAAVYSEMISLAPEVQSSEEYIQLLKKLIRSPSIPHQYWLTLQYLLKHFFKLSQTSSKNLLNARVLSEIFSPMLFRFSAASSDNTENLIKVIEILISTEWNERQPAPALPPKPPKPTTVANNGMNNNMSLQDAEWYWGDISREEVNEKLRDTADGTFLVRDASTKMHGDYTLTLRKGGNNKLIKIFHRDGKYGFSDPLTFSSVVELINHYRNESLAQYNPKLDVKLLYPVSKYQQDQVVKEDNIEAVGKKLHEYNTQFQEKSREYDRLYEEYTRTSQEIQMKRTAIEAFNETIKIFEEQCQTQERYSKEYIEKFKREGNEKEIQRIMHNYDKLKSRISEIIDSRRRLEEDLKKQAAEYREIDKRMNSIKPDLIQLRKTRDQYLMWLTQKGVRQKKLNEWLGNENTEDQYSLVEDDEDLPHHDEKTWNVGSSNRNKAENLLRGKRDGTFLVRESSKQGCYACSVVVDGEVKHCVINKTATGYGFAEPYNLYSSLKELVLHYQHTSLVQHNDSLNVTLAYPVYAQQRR

SMILES	IC50 [1]	IC50 [2]
Cc1c(Cl)cc(C(C)Nc2ncnc3[nH]cnc23)c(-c2cccc(F)c2)c1C(N)=O (stereo not drawn) [Example 2, 4-Chloro-3′-fluoro-3-methyl-6-[1-(9H-purin-6-ylamino)ethyl]biphenyl-2-carboxamide]	< 50 nM	< 100 nM
CC(=O)Nc1ccc(-c2c(C)c(Cl)cc(C(C)Nc3ncnc4[nH]cnc34)c2-c2ccccc2)cc1 (stereo not drawn) [Example 26, N-{5′-chloro-6′-methyl-3′-[1-(9H-purin-6-ylamino)ethyl]-1,1′:2′,1″-terphenyl-4-yl}acetamide]	< 50 nM	< 100 nM
Cc1n[nH]c(C)c1-c1c(C)c(Cl)cc(C(C)Nc2ncnc3[nH]cnc23)c1-c1cc(F)cc(F)c1 (stereo not drawn) [Example 107, N-{1-[4-chloro-6-(3,5-dimethyl-1H-pyrazol-4-yl)-3′,5′-difluoro-5-methylbiphenyl-2-yl]ethyl}-9H-purin-6-amine]	< 50 nM	100 to 500 nM
COc1c(C(C)Nc2ncnc3[nH]cnc23)cc(Cl)c(Cl)c1C1CN(C(C)CO)C1 (stereo not drawn) [Example 208, 2-(3-{2,3-Dichloro-6-methoxy-5-[1-(9H-purin-6-ylamino)ethyl]phenyl}azetidin-l-yl)propan-1-ol bistrifluoroacetate]	< 50 nM	< 100 nM
COc1c(C(C)Nc2ncnc3[nH]cnc23)cc(Cl)c(C)c1-c1cccc(Cl)c1 (stereo not drawn) [Example 35, N-[1-(3′,5-dichloro-2-methoxy-6-methylbiphenyl-3-yl)ethyl]-9H-purin-6-amine]	50 to 100 nM	> 1000 nM
COc1c(C(C)Nc2ncnc3[nH]cnc23)cc(Cl)c(Cl)c1C1CN(C2CCOC2)C1 (stereo not drawn) [Example 197, N-(1-{4,5-Dichloro-2-methoxy-3-[1-(tetrahydrofuran-3-yl)azetidin-3-yl]phenyl}ethyl)-9H-purin-6-amine bistrifluoroacetate]	< 50 nM	< 100 nM
CC(Nc1ncnc2[nH]cnc12)c1cc(Cl)cc(-c2cn[nH]c2)c1-c1cc(F)cc(F)c1 (stereo not drawn) [Example 124, N-{1-[4-Chloro-3′,5′-difluoro-6-(1H-pyrazol-4-yl)biphenyl-2-yl]ethyl}-9H-purin-6-amine]	< 50 nM	< 100 nM
COc1c(C(C)Nc2ncnc3[nH]cnc23)cc(Cl)c(C)c1-c1cccc(CC#N)c1 (stereo not drawn) [Example 46, {3′-chloro-6′-methoxy-2′-methyl-5′-[1-(9H-purin-6-ylamino)ethyl]biphenyl-3-yl}acetonitrile]	< 50 nM	< 100 nM
COc1c(C(C)Nc2ncnc3[nH]cnc23)cc(Cl)c(C)c1-c1ccc(Cl)c(F)c1 (stereo not drawn) [Example 92, N-{1-(4′,5-dichloro-3'-fluoro-2-methoxy-6-methylbiphenyl-3-yl)ethyl]-9H-purin-6-amine]	100 to 250 nM	100 to 500 nM
COc1c(C(C)Nc2ncnc3[nH]cnc23)cc(Cl)c(Cl)c1C1CN(C(C)C)C1 (stereo not drawn) [Example 194, N-{1-[4,5-Dichloro-3-(1-isopropylazetidin-3-yl)-2-methoxyphenyl]ethyl}-9H-purin-6-amine bis(trifluoroacetate)]	< 50 nM	< 100 nM
CCOc1c(C(C)Nc2ncnc3[nH]cnc23)cc(Cl)c(C#N)c1-c1ccc(C(C)O)nc1 (stereo not drawn) [Example 180, 6-chloro-3-ethoxy-2-[6-(1-hydroxyethyl)pyridin-3-yl]-4-[1-(9H-purin-6-ylamino)ethyl]benzonitrile bis(2,2,2-trifluoroacetate)]	< 50 nM	< 100 nM
COc1c(C(C)Nc2ncnc3[nH]cnc23)cc(Cl)c(C)c1-c1cnc(F)c(C)c1 (stereo not drawn) [Example 87, N-{1-[5-chloro-3-(6-fluoro-5-methylpyridin-3-yl)-2-methoxy-4-methylphenyl]ethyl}-9H-purin-6-amine]	< 50 nM	< 100 nM
COc1c(C(C)Nc2ncnc3[nH]cnc23)cc(Cl)c(C)c1-c1ccc(F)nc1 (stereo not drawn) [Example 51, N-{1-[5-chloro-3-(6-fluoropyridin-3-yl)-2-methoxy-4-methylphenyl]ethyl}-9H-purin-6-amine]	< 50 nM	< 100 nM
COc1c(C(C)Nc2ncnc3[nH]cnc23)cc(Cl)c(C)c1-c1ccc(F)c(Cl)c1 (stereo not drawn) [Example 89, N-[1-(3′,5-dichloro-4′-fluoro-2-methoxy-6-methylbiphenyl-3-yl)ethyl]-9H-purin-6-amine]	50 to 100 nM	500 to 1000 nM
COc1c(C(C)Nc2ncnc3[nH]cnc23)cc(Cl)c(C)c1-c1cc(C(=O)N(C)C)cnn1 (stereo not drawn) [Example 178, 6-{3-chloro-6-methoxy-2-methyl-5-[1-(9H-purin-6-ylamino)ethyl]phenyl}-N,N-dimethylpyridazine-4-carboxamide bis(2,2,2-trifluoroacetate)]	< 50 nM	< 100 nM
Cc1c(Cl)cc(C(C)Nc2ncnc3[nH]cnc23)c(-c2cc(F)cc(F)c2)c1C(N)=O (stereo not drawn) [Example 19, 4-Chloro-3′,5′-difluoro-3-methyl-6-[1-(9H-purin-6-ylamino)ethyl]biphenyl-2-carboxamide]	< 50 nM	< 100 nM
Cc1c(Cl)cc(C(C)Nc2ncnc3[nH]cnc23)c(-c2ccccc2)c1-c1ccc(S(C)(=O)=O)cc1 (stereo not drawn) [Example 14, N-{1-[5′-chloro-6′-methyl-4-(methylsulfonyl)-1,1′:2′,1″-terphenyl-3′-yl]ethyl}-9H-purin-6-amine]	< 50 nM	< 100 nM
COC(=O)N(C(=O)OC)c1c(C)c(Cl)cc(C(C)Nc2ncnc3[nH]cnc23)c1-c1cccc(F)c1 (stereo not drawn) [Example 10, Dimethyl {4-chloro-3′-fluoro-3-methyl-6-[1-(9H-purin-6-ylamino)ethyl]biphenyl-2-yl}imidodicarbonate]	< 50 nM	100 to 500 nM

Further lines, results first:

IC50 [1]	IC50 [2]	SMILES
< 50 nM	< 100 nM	COc1c(C(C)Nc2ncnc3[nH]cnc23)cc(Cl)c(C)c1C1CN(C(C)C)C1 (stereo not drawn) [Example 170, N-{1-[5-Chloro-3-(1-isopropylazetidin-3-yl)-2-methoxy-4-methylphenyl]ethyl}-9H-purin-6-amine bis(trifluoroacetate)]
100 to 250 nM	> 1000 nM	COc1c(C(C)Nc2ncnc3[nH]cnc23)cc(Cl)c(C)c1-c1cc(Cl)cc(Cl)c1 (stereo not drawn) [Example 47, N-[1-(3′,5,5′-trichloro-2-methoxy-6-methylbiphenyl-3-yl)ethyl]-9H-purin-6-amine]
100 to 250 nM	> 1000 nM	CCOc1ccc(-c2c(C)c(Cl)cc(C(C)Nc3ncnc4[nH]cnc34)c2OC)cc1F (stereo not drawn) [Example 39, N-[1-(5-chloro-4′-ethoxy-3′-fluoro-2-methoxy-6-methylbiphenyl-3-yl)ethyl]-9H-purin-6-amine]
< 50 nM	< 100 nM	COc1c(C(C)Nc2ncnc3[nH]cnc23)cc(Cl)c(C)c1-c1c(C)noc1C (stereo not drawn) [Example 22, N-{1-[5-chloro-3-(3,5-dimethylisoxazol-4-yl)-2-methoxy-4-methylphenyl]ethyl]-9H-purin-6-amine]
< 50 nM	< 100 nM	CC(=O)Nc1ccc(-c2c(C)c(Cl)cc(C(C)Nc3ncnc4[nH]cnc34)c2-c2cc(F)cc(F)c2)cc1 (stereo not drawn) [Example 83, N-{5′-chloro-3″,5″-difluoro-6′-methyl-3′-[1-(9H-purin-6-ylamino)ethyl]-1,1′:2′,1″-terphenyl-4-yl}acetamide]
250 to 500 nM	100 to 500 nM	COc1c(C(C)Nc2ncnc3[nH]cnc23)cc(Cl)c(C)c1N1CCCC1=O (stereo not drawn) [Example 18, 1-{3-Chloro-6-methoxy-2-methyl-5-[1-(9H-purin-6-ylamino)ethyl]phenyl}pyrrolidin-2-one]
< 50 nM	< 100 nM	COc1ccc(-c2c(C)c(Cl)cc(C(C)Nc3ncnc4[nH]cnc34)c2OC)cc1OC (stereo not drawn) [Example 96, N-[1-(5-chloro-2,3′,4′-trimethoxy-6-methylbiphenyl-3-yl)ethyl]-9H-purin-6-amine]
< 50 nM	< 100 nM	COc1c(C(C)Nc2ncnc3[nH]cnc23)cc(Cl)c(C)c1-c1ccc(N2CCOCC2)cc1 (stereo not drawn) [Example 88, N-[1-(5-chloro-2-methoxy-6-methyl-4′-morpholin-4-ylbiphenyl-3-yl)ethyl]-9H-purin-6-amine]
< 50 nM	100 to 500 nM	COc1c(C(C)Nc2ncnc3[nH]cnc23)cc(Cl)c(C)c1-c1ccc(-n2cccn2)cc1 (stereo not drawn) [Example 43, N-{1-[5-chloro-2-methoxy-6-methyl-4′-(1H-pyrazol-1-yl)biphenyl-3-yl]ethyl}-9H-purin-6-amine]
